Test results reported in US10301304B2, “Selective inhibitor of phosphatidylinositol 3-kinase-gamma” (VERTEX PHARMACEUTICALS INCORPORATED, priority 2013, dated 2019).
pIC50: −log10 of the molar value. Where two headings read alike, the source gives them in different places.

Experiments:
P-gp (MDR1) = biological target: T1, P-gp (MDR1) (Homo sapiens, UniProt P08183); assay: Efflux in MDCK-MDR1 cell line; assay type: in vitro ADME; conditions: human; for recovery at 1 h, 1 μM: MDCK-MDR1, MDCK-MDR1, 1 μM
T1 construct: expressed in transfected cells; host or cells: MDCK (Madin-Darby canine kidney) cells, MDCK-MDR1
Experimental: (§1) The permeability of Compound 1 was evaluated using both Caco-2 and MadinDarby canine kidney (MDCK) wild-type cell lines. Cells were exposed to drug in buffer on the apical side (measuring permeability in the A-to-B direction) or basolateral side (measuring permeability in the B-to-A direction) and incubated at 37° C. for one hour. Permeability was high in the A-to-B direction in both the MDCK and Caco-2 cell lines (33 and 18×10^−6 cm/sec, respectively).
(§2) An assessment of whether Compound 1 is a substrate of efflux transporters was conducted by using the MDCK cell line that is overexpressed with human P-gp (MDR).

human P-gp (MDR) = biological target: T2, human P-gp (MDR) (Homo sapiens, UniProt P08183); assay: Efflux in MDCK-MDR1 cell line; assay type: in vitro ADME; conditions: MDCK overexpressing human P-gp, in words
T2 construct: expressed in transfected cells; host or cells: MDCK (Madin-Darby canine kidney) cells, MDCK-MDR1
Experimental: as §1, §2

[1] = Tissue Distribution in Rats; assay type: in vivo, rat; conditions: 5 mg/kg oral; for Kp at 0.5 h / Kp at 2 h / Kp at 7 h / Kp at 24 h / Kp at 48 h / Kp at 0.5 hr / Kp at 2 hr / Kp at 7 hr / Kp at 24 hr / Kp at 48 hr: male
Experimental: Compound 1 distributed well into most tissues after an oral dose of 5 mg/kg administered to male rats. […] The tissue to plasma ratio followed the trend of liver>kidney>heart>lung>spleen>brain>CSF. The elimination kinetics of Compound 1 in each examined organ followed plasma kinetics. There was no evidence for tissue accumulation of Compound 1 after a single dose administration.

[2] = tested on: CSF-1 stimulated pAkt in THP-1 cells (PI3Kα/β/δ); assay: CSF-1 Stimulated pAkt in THP-1 Cells; assay type: cell-based; conditions: Homo sapiens; THP-1/CSF-1/pAkt, PI3K-alpha/beta/delta dependent; read-out: IC50 Avg +/− SD
Experimental: Growth factors, cytokines and other ligands of receptor tyrosine kinases, like CSF1, bind to their receptors leading to activation of the class IA PI3K signaling pathway. PI3K activation leads to generation of PIP3 and activation of downstream molecules like PDK-1 and Akt. Akt phosphorylation is a measure of PI3K activity in the cell. THP-1 cells (a human monocytic cell line) are starved overnight to deplete pAkt levels. Stimulation with CSF-1 for 5 minutes leads to PI3Kα/β/δ induced phoshorylation of Akt at the Threonine 308 and Serine 473 sites. Cells were fixed and stained for intracellular phosphoAkt (Ser 473) then analyzed on the BD FACSCalibur™ cytometer. This is a measure of cellular Class IA PI3K inhibition.

T1 sequence (P08183 whole entry): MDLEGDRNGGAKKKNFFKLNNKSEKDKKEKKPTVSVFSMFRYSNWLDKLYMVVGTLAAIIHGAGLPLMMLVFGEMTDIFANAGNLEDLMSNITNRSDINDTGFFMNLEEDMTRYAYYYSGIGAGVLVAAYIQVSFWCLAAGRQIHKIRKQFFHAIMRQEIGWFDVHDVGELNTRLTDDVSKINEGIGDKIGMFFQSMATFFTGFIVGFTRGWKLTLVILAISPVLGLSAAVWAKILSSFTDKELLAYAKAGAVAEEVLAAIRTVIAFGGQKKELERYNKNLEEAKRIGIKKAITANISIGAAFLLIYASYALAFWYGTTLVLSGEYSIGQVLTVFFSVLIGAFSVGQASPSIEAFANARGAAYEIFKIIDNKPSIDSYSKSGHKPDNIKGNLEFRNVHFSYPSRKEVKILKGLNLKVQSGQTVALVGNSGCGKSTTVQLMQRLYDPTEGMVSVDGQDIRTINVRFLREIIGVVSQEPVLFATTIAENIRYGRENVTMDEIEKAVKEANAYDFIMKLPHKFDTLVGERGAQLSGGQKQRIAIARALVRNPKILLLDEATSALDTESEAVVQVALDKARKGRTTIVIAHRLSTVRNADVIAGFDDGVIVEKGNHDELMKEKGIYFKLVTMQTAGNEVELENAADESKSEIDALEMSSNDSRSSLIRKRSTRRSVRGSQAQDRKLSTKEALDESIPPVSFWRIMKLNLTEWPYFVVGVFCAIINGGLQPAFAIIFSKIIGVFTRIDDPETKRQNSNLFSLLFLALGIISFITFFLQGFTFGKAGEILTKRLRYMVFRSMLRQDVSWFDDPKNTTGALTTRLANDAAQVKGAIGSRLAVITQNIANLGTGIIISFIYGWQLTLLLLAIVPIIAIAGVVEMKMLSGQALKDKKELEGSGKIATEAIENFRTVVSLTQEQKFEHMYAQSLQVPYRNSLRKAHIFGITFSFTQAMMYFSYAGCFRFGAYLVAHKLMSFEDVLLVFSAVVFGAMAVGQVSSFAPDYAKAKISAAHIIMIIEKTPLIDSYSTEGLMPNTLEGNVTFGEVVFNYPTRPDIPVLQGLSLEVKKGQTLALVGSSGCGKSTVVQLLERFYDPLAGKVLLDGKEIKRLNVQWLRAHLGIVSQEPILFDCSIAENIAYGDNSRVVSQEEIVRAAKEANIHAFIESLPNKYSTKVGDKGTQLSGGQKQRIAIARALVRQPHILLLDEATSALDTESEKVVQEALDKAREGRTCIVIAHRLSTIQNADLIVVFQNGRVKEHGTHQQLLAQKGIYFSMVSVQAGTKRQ
T2 sequence (P08183 whole entry): as above

Cc1cc(-c2cncc([C@@H](O)C(F)(F)F)c2)nc2c1C(=O)N(c1cnn(CC(F)F)c1)C2(C)C [Compound 1, (R)-6-(1-(2,2-difluoroethyl)-1H-pyrazol-4-yl)-4,7,7-trimethyl-2-(5-(2,2,2-trifluoro-1-hydroxyethyl)pyridin-3-yl)-6,7-dihydro-5H-pyrrolo[3,4-b]pyridin-5-one]
recovery at 1 h, 1 μM (P-gp (MDR1); A > B): 97%
recovery at 1 h, 1 μM (P-gp (MDR1); B > A): 87%
efflux ratio at 1 h, 1 μM (P-gp (MDR1); MDCK-MDR1, 1 μM): 35.1
Papp A→B at 1 h, 1 μM (P-gp (MDR1); MDCK-MDR1, 1 μM, A > B): 0.98 ×10⁻⁶ cm/s
Papp B→A at 1 h, 1 μM (P-gp (MDR1); MDCK-MDR1, 1 μM, B > A): 34.3 ×10⁻⁶ cm/s
substrate of efflux transporters (human P-gp (MDR)): P-gp substrate
Cmax, brain ([1]; male rats): 111 ng/g
Cmax, kidney ([1]; male rats): 4770 ng/g
Cmax, liver ([1]; male rats): 11400 ng/g
tissue to plasma ratio trend ([1]; male rats, in words): liver>kidney>heart>lung>spleen>brain>CSF
Kp at 0.5 h ([1]; CSF (relative to plasma), rat, 0.5 hr post dose, read-out: Tissue to Plasma Ratio, CSF): 0.01
Kp at 2 h ([1]; CSF (relative to plasma), rat, 2 hr post dose, read-out: Tissue to Plasma Ratio, CSF): 0.01
Kp at 7 h ([1]; CSF (relative to plasma), rat, 7 hr post dose, read-out: Tissue to Plasma Ratio, CSF): 0.01
Kp at 24 h ([1]; CSF (relative to plasma), rat, 24 hr post dose, read-out: Tissue to Plasma Ratio, CSF): 0.01
Kp at 7 h ([1]; brain (relative to plasma), rat, 7 hr post dose, read-out: Tissue to Plasma Ratio, Brain): 0.05
Kp at 24 h ([1]; brain (relative to plasma), rat, 24 hr post dose, read-out: Tissue to Plasma Ratio, Brain): 0.06
Kp at 0.5 h ([1]; brain, rat, 0.5 hr post dose, read-out: Tissue to Plasma Ratio, Brain): 0.04
Kp at 2 h ([1]; brain, rat, 2 hr post dose, read-out: Tissue to Plasma Ratio, Brain): 0.07
Kp at 48 h ([1]; brain, rat, 48 hr post dose, read-out: Tissue to Plasma Ratio, Brain): 0.07
Kp at 0.5 hr ([1]; heart, rat, 0.5 hr post dose, read-out: Tissue to Plasma Ratio, Heart): 0.98
Kp at 2 hr ([1]; heart, rat, 2 hr post dose, read-out: Tissue to Plasma Ratio, Heart): 1.67
Kp at 7 hr ([1]; heart, rat, 7 hr post dose, read-out: Tissue to Plasma Ratio, Heart): 1.4
Kp at 24 hr ([1]; heart, rat, 24 hr post dose, read-out: Tissue to Plasma Ratio, Heart): 1.46
Kp at 48 hr ([1]; heart, rat, 48 hr post dose, read-out: Tissue to Plasma Ratio, Heart): 1.39
Kp at 0.5 hr ([1]; kidney, rat, 0.5 hr post dose, read-out: Tissue to Plasma Ratio, Kidney): 1.75
Kp at 2 hr ([1]; kidney, rat, 2 hr post dose, read-out: Tissue to Plasma Ratio, Kidney): 2.54
Kp at 7 hr ([1]; kidney, rat, 7 hr post dose, read-out: Tissue to Plasma Ratio, Kidney): 2.16
Kp at 24 hr ([1]; kidney, rat, 24 hr post dose, read-out: Tissue to Plasma Ratio, Kidney): 3.03
Kp at 48 hr ([1]; kidney, rat, 48 hr post dose, read-out: Tissue to Plasma Ratio, Kidney): 4.76
Kp at 0.5 h ([1]; liver, rat, 0.5 hr post dose, read-out: Tissue to Plasma Ratio, Liver): 4.96
Kp at 2 h ([1]; liver, rat, 2 hr post dose, read-out: Tissue to Plasma Ratio, Liver): 6.99
Kp at 7 h ([1]; liver, rat, 7 hr post dose, read-out: Tissue to Plasma Ratio, Liver): 5.13
Kp at 24 h ([1]; liver, rat, 24 hr post dose, read-out: Tissue to Plasma Ratio, Liver): 5.69
Kp at 48 hr ([1]; liver, rat, 48 hr post dose, read-out: Tissue to Plasma Ratio, Liver): 5.32
Kp at 0.5 h ([1]; lung, rat, 0.5 hr post dose, read-out: Tissue to Plasma Ratio, Lung): 1.24
Kp at 2 h ([1]; lung, rat, 2 hr post dose, read-out: Tissue to Plasma Ratio, Lung): 1.38
Kp at 7 h ([1]; lung, rat, 7 hr post dose, read-out: Tissue to Plasma Ratio, Lung): 1.22
Kp at 24 h ([1]; lung, rat, 24 hr post dose, read-out: Tissue to Plasma Ratio, Lung): 1.17
Kp at 48 h ([1]; lung, rat, 48 hr post dose, read-out: Tissue to Plasma Ratio, Lung): 1.31
Kp at 0.5 h ([1]; spleen, rat, 0.5 hr post dose, read-out: Tissue to Plasma Ratio, Spleen): 0.74
Kp at 2 h ([1]; spleen, rat, 2 hr post dose, read-out: Tissue to Plasma Ratio, Spleen): 1.15
Kp at 7 h ([1]; spleen, rat, 7 hr post dose, read-out: Tissue to Plasma Ratio, Spleen): 0.81
Kp at 24 h ([1]; spleen, rat, 24 hr post dose, read-out: Tissue to Plasma Ratio, Spleen): 0.93
Kp at 48 h ([1]; spleen, rat, 48 hr post dose, read-out: Tissue to Plasma Ratio, Spleen): 0.88
Compound 1 Concentration, Brain ([1]; rat, 0.5 hr post dose): 74 ng/ml or ng/g
Compound 1 Concentration, CSF ([1]; rat, 0.5 hr post dose): 20 ng/ml or ng/g
Compound 1 Concentration, Heart ([1]; rat, 0.5 hr post dose): 1730 ng/ml or ng/g
Compound 1 Concentration, Kidney ([1]; rat, 0.5 hr post dose): 3070 ng/ml or ng/g
Compound 1 Concentration, Liver ([1]; rat, 0.5 hr post dose): 8710 ng/ml or ng/g
Compound 1 Concentration, Lung ([1]; rat, 0.5 hr post dose): 2180 ng/ml or ng/g
Compound 1 Concentration, Plasma ([1]; rat, 0.5 hr post dose): 1760 ng/ml or ng/g
Compound 1 Concentration, Spleen ([1]; rat, 0.5 hr post dose): 1290 ng/ml or ng/g
Compound 1 Concentration, Brain ([1]; rat, 2 hr post dose): 129 ng/ml or ng/g
Compound 1 Concentration, CSF ([1]; rat, 2 hr post dose): 23.3 ng/ml or ng/g
Compound 1 Concentration, Heart ([1]; rat, 2 hr post dose): 3280 ng/ml or ng/g
Compound 1 Concentration, Kidney ([1]; rat, 2 hr post dose): 4980 ng/ml or ng/g
Compound 1 Concentration, Liver ([1]; rat, 2 hr post dose): 13700 ng/ml or ng/g
Compound 1 Concentration, Lung ([1]; rat, 2 hr post dose): 2710 ng/ml or ng/g
Compound 1 Concentration, Plasma ([1]; rat, 2 hr post dose): 1960 ng/ml or ng/g
Compound 1 Concentration, Spleen ([1]; rat, 2 hr post dose): 1790 ng/ml or ng/g
Compound 1 Concentration, Brain ([1]; rat, 7 hr post dose): 111 ng/ml or ng/g
Compound 1 Concentration, CSF ([1]; rat, 7 hr post dose): 27 ng/ml or ng/g
Compound 1 Concentration, Heart ([1]; rat, 7 hr post dose): 3100 ng/ml or ng/g
Compound 1 Concentration, Kidney ([1]; rat, 7 hr post dose): 4770 ng/ml or ng/g
Compound 1 Concentration, Liver ([1]; rat, 7 hr post dose): 11400 ng/ml or ng/g
Compound 1 Concentration, Lung ([1]; rat, 7 hr post dose): 2700 ng/ml or ng/g
Compound 1 Concentration, Plasma ([1]; rat, 7 hr post dose): 2210 ng/ml or ng/g
Compound 1 Concentration, Spleen ([1]; rat, 7 hr post dose): 491 ng/ml or ng/g
Compound 1 Concentration, Brain ([1]; rat, 24 hr post dose): 30 ng/ml or ng/g
Compound 1 Concentration, CSF ([1]; rat, 24 hr post dose): 5 ng/ml or ng/g
Compound 1 Concentration, Heart ([1]; rat, 24 hr post dose): 771 ng/ml or ng/g
Compound 1 Concentration, Kidney ([1]; rat, 24 hr post dose): 1600 ng/ml or ng/g
Compound 1 Concentration, Liver ([1]; rat, 24 hr post dose): 3010 ng/ml or ng/g
Compound 1 Concentration, Lung ([1]; rat, 24 hr post dose): 617 ng/ml or ng/g
Compound 1 Concentration, Plasma ([1]; rat, 24 hr post dose): 592 ng/ml or ng/g
Compound 1 Concentration, Spleen ([1]; rat, 24 hr post dose): 125 ng/ml or ng/g
Compound 1 Concentration, Brain ([1]; rat, 48 hr post dose): 9.35 ng/ml or ng/g
Compound 1 Concentration, CSF ([1]; rat, 48 hr post dose): BQL
Compound 1 Concentration, Heart ([1]; rat, 48 hr post dose): 196 ng/ml or ng/g
Compound 1 Concentration, Kidney ([1]; rat, 48 hr post dose): 673 ng/ml or ng/g
Compound 1 Concentration, Liver ([1]; rat, 48 hr post dose): 750 ng/ml or ng/g
Compound 1 Concentration, Lung ([1]; rat, 48 hr post dose): 185 ng/ml or ng/g
Compound 1 Concentration, Plasma ([1]; rat, 48 hr post dose): 141 ng/ml or ng/g
Compound 1 Concentration, Spleen ([1]; rat, 48 hr post dose): BQL
Tissue to Plasma Ratio, CSF ([1]; rat, 48 hr post dose): BQL
Kp ([1]; rat, brain and CSF, relative to plasma, male rats, read-out: brain and CSF exposure, % of the plasma exposure): < 0.001
Cmax ([1]; rat, cerebrospinal fluid (CSF), male rats): 27 ng/mL
pIC50 [2]: < 5.01
